Where a name gives a salt, the structure may show the parent alone.
Tests used:
[1] = test system: Ba/F3 cells transfected with p210 non-mutated BCR-ABL; conditions: cited from earlier work
[2] = test system: Ba/F3 cells transfected with E255V mutant BCR-ABL; conditions: cited from earlier work
[3] = test system: Ba/F3 cells transfected with M351T mutant BCR-ABL; conditions: cited from earlier work
[4] = test system: BCR-ABL positive bone marrow cells; experiment: in vitro treatment of mixed bone marrow cultures from mice with CML-like syndrome, flow cytometry; assay type: cell-based, mouse
Procedure: (§1) Bone marrow cells from diseased mice are cultured in DMEM media containing 10% FBS (Gibco), SCF (RDI), IL-3 and IL-6 (R&D systems). For in-vitro treatment experiments, 4×10^6 bone marrow or spleen cells are seeded into 1 well of a 6-well plate. Cyclopamine-KAAD (obtained from Toronto Research Chemicals) is dissolved as ×1,000 stock in DMSO. After 72 hours of treatment, cells are plated in methyl cellulose media containing SCF, IL-6, IL-3 and insulin from stem cell technologies (M3434) according to the manufacturer's instruction. Colonies are counted 5 days and 10 days after plating. After 12 days, cells are diluted from the plates, washed in PBS and then either stained for analysis of different cell types or replated into a second or third plating round.
Flow cytometry stainings for analysis of hematological cell types is performed using the antibodies Sca-PE, Kit-APC, Lin markers CD3, Gr-1, CD11b, CD19, Ter119 all PE-Cy7 positive, CD4-PE, CD8-APC from BD Pharmingen according to the manufacturer's instructions. For cell cycle analysis of stem cells, cells are treated with cyclopamine for 48 hours, then stained with Lin markers, Kit-APC and Sca-PE. Stained bone marrow is then fixed in 2% Formalin. Cells are permeabilized with 70% chilled ethanol for at least 1 hour and then treated with propidium iodide (5 mg/ml) for at least 30 minutes. Cells are analyzed using a flow cytometer from Coulter. Annexin staining is performed after incubation of mixed bone marrow with cyclopamine for 24, 48 and 72 hours. Cells are stained with Annexin-PE antibody and 7-AAD (BD Bioscience) according to the manufacturer's instructions.
Bone marrow from mice with CML-like syndrome which contained about 50% BCR-ABL GFP positive cells versus 50% normal bone marrow cells is used. […] GFP positive cells after in vitro treatment with cyclopamine (2 μM or 5 μM) can be detected by flow cytometry analysis.
(§2) Gli1 transcript levels in the bone marrow are reduced after treatment with cyclopamine, verifying the inhibition of the hedgehog signaling pathway in those cells by the compound (FIG. 2B). In FIG. 2B, bone marrow cultures are treated with either DMSO alone or different concentrations of cyclopamine (2 μM or 5 μM) for six hours. RNA is extracted from treated cultures and Gli1 transcript levels are measured by Taqman PCT and normalized to GAPDH. Assays are done in triplicates.

[5] = test system: BCR-ABL positive colonies; experiment: methyl cellulose colony assay of pretreated mixed bone marrow and spleen cultures; assay type: cell-based, mouse; conditions: 10, 5, 2.5, 1 and 0 uM for 48 hours; colonies counted 10 days after plating, no cytokines (FIG. 2C)
Procedure: as §1
To further validate the effect of hedgehog pathway inhibition on the self renewing progenitor and leukemic stem cell population, mixed bone marrow and spleen cultures are treated with different concentrations of cyclopamine-KAAD (10, 5, 2.5, 1 and 0 uM) for 48 hours. The cells are then plated in methyl cellulose plates without supplementary cytokines, so that only BCR-ABL positive cells can survive. Colonies are counted 10 days after plating.

[6] = test system: BCR-ABL positive leukemia; experiment: treatment of mice transplanted with BCR-ABL positive bone marrow (CML-like disease); assay type: in vivo, mouse
Procedure: Ptch+/− mice (Jackson Laboratory), Smo−/− mice (Deltagene), C57BL/6 mice (Jackson laboratory) and B6-Pep3b-Ly5.1 (Pep) mice) are maintained and genotyped as described. For bone marrow transplantation experiments, C57BL/6 males are injected with 5-FU (150 mg/kg) intraperitoneal and sacrificed four days later. Bone marrow mononuclear cells are flushed from the leg bones, red blood cells are lysed with ammonium-chloride and bone marrow cells are cultivated in DMEM containing 10% FBS, SCF, IL-6 and IL-3. Cells are infected with a pMSCV/BCR-ABL/IRES/GFP retrovirus, 5×10^5 mononuclear cells are transplanted into lethally irradiated C57BL/6 mice. Treatment with AMN107 50 mg/kg bid (Novartis, Basel) and cyclopamine 25 mg/kg bid (Novartis, Cambridge) started day 7 after transplantation for 14 days.
Mice transplanted with BCR-ABL positive bone marrow is treated with either a suboptimal dose of the ABL inhibitor AMN107, or with a combination of AMN107 (50 mg/kg qd) and the Smo antagonist cyclopamine (25 mg/kg bid). Treatment is started seven days after transplantation and is continued for fourteen days total. At the end of the treatment, three mice in each group are sacrificed and bone marrow from 1 femur is plated in methyl cellulose colony assays without addition of cytokines to detect only BCR-ABL positive colonies.
Eight days after the end of treatment, another three mice per group are sacrificed and examined for signs of relapse by comparing liver and spleen weight. […] The five remaining mice in each group are monitored for signs of disease and sacrificed when moribund.

Gli1 = Gli1 transcript levels in treated bone marrow cultures (Taqman PCR); assay type: cell-based, mouse; conditions: 2 μM or 5 μM, six hours, normalized to GAPDH (FIG. 2B)
Procedure: RNA is extracted from CD34+ cells from CML patients in chronic phase or blast crisis of disease, from whole bone marrow or from sorted Lin−Kit+Sca+ positive cells using a Qiagen RNA extraction kit according to the manufacturer's recommendation. Quantitative PCR is assessed by Taqman PCR. Primers and probes are obtained from Applied Biosystems.
as §2

Aurora kinases = conditions: cited from earlier work
CML = CML therapy; cited from earlier work
[7] = test system: human CML K562 cells selected for resistance to imatinib; conditions: cited from earlier work
[8] = eight days after the end of treatment
[9] = mixed bone marrow cultures, 72 hours (FIG. 2A)

SMILES: NC(=O)c1cccc(-c2cc(Nc3ccc(OC(F)(F)F)cc3)ncn2)c1 [GNF-2, 3-[6-[[4-(trifluoromethoxy)phenyl]amino]-4-pyrimidinyl]benzamide]
- proliferation of Ba/F3 cells, p210 non-mutated BCR-ABL [1]: inhibits the proliferation
- proliferation of Ba/F3 cells, E255V mutant BCR-ABL [2]: inhibits the proliferation
- proliferation of Ba/F3 cells, M351T mutant BCR-ABL [3]: inhibits the proliferation

SMILES: CC1=C2C[C@H]3[C@@H](CC=C4CC(=O)CC[C@@]43C)[C@@H]2CC[C@]12O[C@@H]1C[C@H](C)CN(CCNC(=O)CCCCCNC(=O)CCc3ccccc3)[C@H]1[C@H]2C [KAAD-cyclopamine]
- reduction of the GFP/BCR-ABL positive population compared to the GFP negative population ([4]; mixed bone marrow cultures, three days, 2 μM or 5 μM): dose dependent reduction
- BCR-ABL positive colonies [5]: dose dependent reduction

SMILES: Cc1cn(-c2cc(NC(=O)c3ccc(C)c(Nc4nccc(-c5cccnc5)n4)c3)cc(C(F)(F)F)c2)cn1 [AMN107, nilotinib]
- peripheral blood cell counts, spleen and liver weights ([6]; at the end of the treatment): normal
- average spleen size relative to the combination group [6, 8]: about double
- liver weight relative to the combination group [6, 8]: much higher
- average survival after end of treatment ([6]; five mice per group, sacrificed when moribund (FIG. 5C)): eight

SMILES: CC1=C2C[C@H]3[C@@H](CC=C4C[C@@H](O)CC[C@@]43C)[C@@H]2CC[C@]12O[C@@H]1C[C@H](C)CN[C@H]1[C@H]2C [cyclopamine]
- alterations in the cell cycle, complete bone marrow ([4]; 48 hours, propidium iodide): relative increase of the G1 phase compared to S phase and G2 phase
- cell cycle analysis of the leukemic stem cell population ([4]; 48 hours, propidium iodide): complete loss of the G2 phase
- apoptosis induction in BCR-ABL positive bone marrow cells, time ([4]; AnnexinV staining): ≤ 24 h
- reduction of BCR-ABL positive myeloid progenitor cells (Lin−Kit+Sca−) [4, 9]: more than 80%
- reduction of the Lin−Kit+Sca+ leukemic stem cell population [4, 9]: around 70%
- Gli1 transcript levels in the bone marrow (Gli1): reduced

SMILES: Cc1cc(Nc2cc(N3CCN(C)CC3)nc(Sc3ccc(NC(=O)C4CC4)cc3)n2)n[nH]1 [MK-0457]
- inhibition of all three Aurora kinases (Aurora kinases): nanomolar range

SMILES: Cc1ccc(NC(=O)c2ccc(CN3CCN(C)CC3)cc2)cc1Nc1nccc(-c2cccnc2)n1 [Imatinib mesylate]
- response rates (CML): more than 96%

SMILES: Cc1cc(Nc2ncc3cc(-c4c(Cl)cccc4Cl)c(=O)n(C)c3n2)ccc1F [PD180970]
- proliferation of imatinib-resistant K562 cells over-expressing Lyn [7]: inhibited
